Source: patent publication US10144929B2, “Polypeptide inhibitors of Smad3 polypeptide activities” (Mayo Foundation for Medical Education and Research, priority 2016, dated 2018)
“Also recorded” adds a separate entry of the source.

What was measured:
[1] = tested on: Smad3 targets (PAI-1, CTGF, Smad7); test: RT-PCR/qPCR/Western of Smad3 responsive genes in AKR-2B cells; format: cell-based; details: 5 ng/mL TGFβ, 24 hours
Experimental: FIGS. 2A-C. TAT-SH3 inhibits Smad3-dependent responses. (A) AKR-2B cells were transiently transfected with a Smad3 (3TP), Smad2 (ARE), or Smad1/5/8 (BRE) reporter construct, and luciferase activity determined following 12 hours incubation in the absence (−) or presence (+) of the indicated ligand (5 ng/mL TGFβ; 10 ng/mL BMP4) or TAT-SNX9(SH3) fusion polypeptide (1.5 μM). Data represent the mean+/−SEM of three experiments. (B) RT-PCR analysis of Smad3 (PAI-1 and CTGF) and Smad2 (MMP2) responsive gene following 24 hour treatment of AKR-2B cells with the indicated concentration of TAT-SNX9(SH3) fusion polypeptide or 5 ng/mL TGFβ. Loading was verified by GAPDH expression. (C) Soft agar colony formation was performed following seven days growth in the presence (+) or absence (−) of TGFβ (10 ng/mL) or the indicated TAT-SNX9(SH3) fusion polypeptide (1.5 μM). […]
FIGS. 3A-E. Inhibition of Smad3 signaling by a defined region of the SH3 domain in SNX9. […] (B) Nuclear fractions were prepared and assessed as in FIG. 1B following transduction with the indicated TAT-SNX9(SH3) fusion polypeptide (Left). Quantitation (mean+/−sd) of nuclear pSmad2 or pSmad3 from 2 experiments (Right). (C) Immunofluorescence of nuclear Smad3 was determined as in FIG. 1C from 30 cells in each of two experiments in the absence (−) or presence (+) of 5 ng/mL TGFβ and the indicated TAT-SNX9(SH3) fusion polypeptide (1.5 μM). […]

pSmad3 = target: T1, pSmad3 (Mus musculus, UniProt Q8BUN5); test: His pull down of pSmad3 by TAT-SNX9(SH3) fusion polypeptides; format: binding; details: lysates of TGFβ treated AKR-2B cultures
T1 construct: endogenous in cells; host or cells: AKR-2B cells
T1 sequence (Q8BUN5 whole entry, the tested form may be a part): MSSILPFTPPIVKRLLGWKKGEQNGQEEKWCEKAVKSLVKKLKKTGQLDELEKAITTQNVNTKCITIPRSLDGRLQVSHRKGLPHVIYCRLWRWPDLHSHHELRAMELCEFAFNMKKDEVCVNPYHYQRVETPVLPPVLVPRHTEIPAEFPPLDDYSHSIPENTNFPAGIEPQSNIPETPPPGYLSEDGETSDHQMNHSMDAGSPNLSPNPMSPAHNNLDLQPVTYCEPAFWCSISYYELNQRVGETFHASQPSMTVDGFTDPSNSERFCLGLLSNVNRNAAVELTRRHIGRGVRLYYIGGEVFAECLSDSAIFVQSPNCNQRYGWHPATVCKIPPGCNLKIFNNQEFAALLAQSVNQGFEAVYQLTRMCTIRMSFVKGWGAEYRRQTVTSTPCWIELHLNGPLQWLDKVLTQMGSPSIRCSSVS
Experimental: FIGS. 3A-E. Inhibition of Smad3 signaling by a defined region of the SH3 domain in SNX9. (A) Cartoon depicting constructs used for His pull down assays. AKR-2B lysates were incubated with the indicated TAT-SNX9(SH3) fusion polypeptide and immunoblotted for bound pSmad3 or total TAT-SNX9(SH3) fusion polypeptide (His). (B) Nuclear fractions were prepared and assessed as in FIG. 1B following transduction with the indicated TAT-SNX9(SH3) fusion polypeptide (Left). Quantitation (mean+/−sd) of nuclear pSmad2 or pSmad3 from 2 experiments (Right). (C) Immunofluorescence of nuclear Smad3 was determined as in FIG. 1C from 30 cells in each of two experiments in the absence (−) or presence (+) of 5 ng/mL TGFβ and the indicated TAT-SNX9(SH3) fusion polypeptide (1.5 μM). […]
FIGS. 4A-E. A point mutant of TAT-SH3-2 abolishes the inhibitory action on Smad3 responses. […] (E) AKR-2B cells were transiently transfected with a BMP (BRE), EGF (SRE), or PDGF (MMP-1) reporter construct and luciferase activity determined following 12 hour incubation in the absence (−) or presence (+) of the indicated ligand (10 ng/mL BMP4, EGF, or PDGF), inhibitor (10 μM Dorsomophin; 3 μM Lapatinib; 2 μM CP868) or TAT-SNX9(SH3) fusion polypeptide (1.5 μM). […]

[2] = tested on: adenovirus-TGFβ models of pulmonary fibrosis; test: Adenovirus-TGFβ model of pulmonary fibrosis; format: in vivo, Mice; details: 1 mg/kg daily from day 21
Experimental: FIGS. 13A-C. Mice were infected with 1×10^8 pfu adenovirus particles expressing control (GFP) or active TGFβ by tracheal instillation. On day 21, all animals began daily treatment with either vehicle (methocel/saline) or 1 mg/kg of the indicated TAT polypeptide. (A) On days 21 and 35, peripheral blood oxygen was determined. (B and C) Mice were sacrificed on day 39 and processed for lung hydroxyproline content (B) or qPCR expression of the indicated genes (C) (CTGF, connective tissue growth factor; α-SMA, alpha smooth muscle actin; Col Iα1, collagen Iα1). For panels A-C, data reflect mean+/−SEM of n=8 and n=16 for adenovirus-GFP and adenovirus-TGFβ, respectively. *P<0.05, **P<0.001, ***P<0.0005.
Mice were infected with 1×10^8 pfu adenovirus particles expressing control (GFP) or active TGFβ by tracheal instillation. On day 21, all animals began daily treatment with either vehicle (methocel/saline) or 1 mg/kg of the indicated TAT polypeptide. On days 21 and 35, peripheral blood oxygen was determined. Mice were sacrificed on day 39 and processed for lung hydroxyproline content or qPCR expression of CTGF (connective tissue growth factor), α-SMA (alpha smooth muscle actin), and Col Iα1 (collagen Iα1).

Substance | TGFβ induction of Smad3 targets / Smad3-dependent transcriptional responses [1] | pSmad3 binding (pSmad3) | lung function (peripheral blood oxygen) [2]
TAT-SH3-2: TAT-SNX9(SH3) fusion polypeptide having SNX9 amino acids 21-51 (31 mer) (TVNEGEIITITNPDVGGGWLEGRNIKGERGL; left off: small tags and cut ends) | prevented Smad3-dependent transcriptional responses; also recorded: prevented TGFβ induction of Smad3 targets such as CTGF, PAI-1, and Smad7 to a similar degree as inhibition of TβRI | bound pSmad3 to a similar degree as a TAT-SNX9(SH3) fusion polypeptide having the full length SH3 domain | stabilized lung function
TAT-SH3-2M: TAT-SH3-2 with G to V point mutations at amino acids 36-38; inactive TAT-SNX9 peptide unable to bind pSmad3 (TVNEGEIITITNPDVVVVWLEGRNIKGERGL; left off: small tags and cut ends) | abolished the inhibitory effect | unable to bind pSmad3 | 
